The values that follow come from patent publication US20260274891A1, “¿ OPIOID RECEPTOR AGONIST AND USE THEREOF” (CHENGDU AODA BIOTECHNOLOGY CO., LTD., priority 2023, published 2026).

Usually EC50 stands for the concentration needed to bring the measured effect to its halfway point. The low end stands for a more potent agent, the high end for a less potent agent.

The assay has as its target T1, human κ opioid receptor (OPRK1) (Homo sapiens, UniProt P41145).
T1 construct: expressed in transfected cells; host or cells: CHO-K1
Put plainly: Determination of activities of κ receptor agonists: inhibition of forskolin-stimulated cAMP release (HTRF) in stably transfected CHO-K1 cells. Format: cell-based. Conditions: for Relative Activity %: relative to Difelikefalin = 100.0. The text has this:
Gi-coupled human κ opioid receptor (OPRK1), upon stimulation with its specific opioid receptor agonists, can inhibit the intracellular adenylate cyclase pathway, and decrease cAMP levels. Forskolin can stimulate cAMP release in cell lines highly expressing opioid receptors. By stimulating cell lines stably transfected with opioid receptors, the inhibitory effect of a test compound on forskolin-stimulated cAMP release can be measured to determine the activity of the compound. The relative light units (RLU) from the cells after stimulation with different doses were measured via the homogeneous time-resolved fluorescence technique (HTRF), and the EC50 value of the agonist was subsequently calculated. This activity determination method is a currently commonly used method for determining the activities of opioid receptor agonists at home and abroad.
A CHO-K1 cell line stably expressing opioid receptors was used. Stably transfected cells were stimulated with various concentrations of agonists (under the stimulation of a certain concentration of forskolin). The relative light units from the cells after stimulation with different doses were measured, from which the EC50 value of the agonist was subsequently obtained by calculation.

Bridge positions count the residues as written; N and C are the ends. Square brackets hold non-standard residues; d marks the D form. Side chains are listed from the residue outwards. Peptide text beside a SMILES is read from it. I, II: the chains in the order shown. * marks the point of attachment. X3 = NCCCC[C@@H](NC(=O)[C@@H](CCCCN)NC(=O)C1(N)CCN(*)CC1)C(=O)O; X21 = NCCCC[C@H](NC(=O)[C@H](CCCCN)NC(=O)C1(N)CCN(*)CC1)C(N)=O; X28 = NCCCC[C@H](NC(=O)[C@H](CCCCN)NC(=O)C1(N)CCN(*)CC1)C(=O)O; X12 = CCOc1ccc(C[C@@H](NC(=O)[C@H](N)Cc2ccccc2)C(=O)*)cc1; Piperidinyl(4-NH2,4-CONH2) = NC(=O)C1(N)CCN(*)CC1; X10 = NCCCC[C@@H](NC(=O)C1(N)CCN(*)CC1)C(=O)O; X4 = NCCCC[C@H](NC(=O)C1(N)CCN(*)CC1)C(=O)O; X6 = NCCCC[C@H](NC(=O)C1(N)CCN(*)CC1)C(N)=O; Api = NC1(C(=O)O)CCNCC1

T1 sequence (P41145 whole entry): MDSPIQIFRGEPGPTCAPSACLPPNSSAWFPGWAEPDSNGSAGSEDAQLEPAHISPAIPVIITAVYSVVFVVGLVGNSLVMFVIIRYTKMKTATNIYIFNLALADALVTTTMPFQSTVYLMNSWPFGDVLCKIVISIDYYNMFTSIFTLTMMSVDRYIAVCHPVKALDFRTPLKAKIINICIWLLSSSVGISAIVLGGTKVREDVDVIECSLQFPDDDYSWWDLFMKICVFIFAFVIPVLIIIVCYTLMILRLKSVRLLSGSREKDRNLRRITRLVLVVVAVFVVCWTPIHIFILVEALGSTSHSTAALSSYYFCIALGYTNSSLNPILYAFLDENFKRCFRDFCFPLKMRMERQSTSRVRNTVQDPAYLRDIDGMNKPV

Take `CCOc1ccc(C[C@@H](NC(=O)[C@H](N)Cc2ccccc2)C(=O)N[C@H](CC(C)C)C(=O)N[C@H](CCCCN)C(=O)N2CCC(N)(C(N)=O)CC2)cc1` [Compound 1, D-Phe-D-Tyr(Et)-D-Leu-D-Lys-4-aminopiperidine-4-carboxylicacid-NH2] (H-[dF][dY](Et)[dL][dK]-{Piperidinyl(4-NH2,4-CONH2)}; N-terminus assumed): the EC50 was 0.116 nM and the “Relative Activity %” value amounted to 524.8%.
With `CCOc1ccc(C[C@@H](NC(=O)[C@H](N)Cc2ccccc2)C(=O)N[C@H](CC(C)C)C(=O)N[C@H](CCCCN)C(=O)N2CCC(N)(C(=O)N[C@@H](CCCCN)C(N)=O)CC2)cc1` [Compound 3, D-Phe-D-Tyr(Et)-D-Leu-D-Lys-4-aminopiperidine-4-carboxamide-Lys-NH2] (H-[dF][dY](Et)[dL][dK]-X6; N-terminus assumed), the 50% effective concentration (EC50) is 0.0394 nM and the “Relative Activity %” value is 1541.1%.
For the molecule `CCOc1ccc(C[C@@H](NC(=O)[C@H](N)Cc2ccccc2)C(=O)N[C@H](CC(C)C)C(=O)N[C@H](CCCCN)C(=O)N2CCC(N)(C(=O)N[C@@H](CCCCN)C(=O)O)CC2)cc1` [Compound 4, D-Phe-D-Tyr(Et)-D-Leu-D-Lys-4-aminopiperidine-4-carboxamide-Lys-OH] (H-[dF][dY](Et)[dL][dK]-X4; N-terminus assumed), a half-maximal response (EC50) required 0.0399 nM and the “Relative Activity %” value was found to be 1521.8%.
Turning to `CCOc1ccc(C[C@@H](NC(=O)[C@H](N)Cc2ccccc2)C(=O)N[C@H](CC(C)C)C(=O)N[C@H](CCCCN)C(=O)N2CCC(N)(C(=O)N[C@@H](CCCCN)C(=O)N[C@@H](CCCCN)C(N)=O)CC2)cc1` [Compound 5, D-Phe-D-Tyr(Et)-D-Leu-D-Lys-4-aminopiperidine-4-carboxamide-Lys-Lys-NH2] (H-[dF][dY](Et)[dL][dK]-X21; N-terminus assumed), the concentration for a half-maximal effect (EC50) was 0.041 nM and the “Relative Activity %” value came out at 1481.0%.
The matching figures for `CCOc1ccc(C[C@@H](NC(=O)[C@H](N)Cc2ccccc2)C(=O)N[C@H](CC(C)C)C(=O)N[C@H](CCCCN)C(=O)N2CCC(N)(C(=O)N[C@@H](CCCCN)C(=O)N[C@@H](CCCCN)C(=O)O)CC2)cc1` [Compound 6, D-Phe-D-Tyr(Et)-D-Leu-D-Lys-4-aminopiperidine-4-carboxamide-Lys-Lys-OH] (H-[dF][dY](Et)[dL][dK]-X28; N-terminus assumed): 0.0402 nM and 1510.4%.
The corresponding values for `CCOc1ccc(C[C@@H](NC(=O)[C@H](N)Cc2ccccc2)C(=O)N[C@H](CC(C)C)C(=O)N[C@H](CCCCN)C(=O)N2CCC(N)(C(=O)N[C@@H](CCCCN)C(=O)N[C@@H](CCCCN)C(=O)N[C@@H](CCCCN)C(=O)N[C@@H](CCCCN)C(=O)O)CC2)cc1` [Compound 10, D-Phe-D-Tyr(Et)-D-Leu-D-Lys-4-aminopiperidine-4-carboxamide-Lys-Lys-Lys-Lys-OH] (H-[Api]([dK-dL-X12])KKKK-OH; N-terminus assumed) are 0.0463 nM and 1311.4%.
Turning to `CCOc1ccc(C[C@@H](NC(=O)[C@H](N)Cc2ccccc2)C(=O)N[C@H](CC(C)C)C(=O)N[C@H](CCCCN)C(=O)N2CCC(N)(C(=O)N[C@@H](CCCCN)C(=O)N[C@@H](CCCCN)C(=O)N[C@@H](CCCCN)C(=O)N[C@@H](CCCCN)C(=O)N[C@@H](CCCCN)C(N)=O)CC2)cc1` [Compound 11, D-Phe-D-Tyr(Et)-D-Leu-D-Lys-4-aminopiperidine-4-carboxamide-Lys-Lys-Lys-Lys-Lys-NH2] (H-[Api]([dK-dL-X12])KKKKK-NH2; N-terminus assumed), the concentration giving a half-maximal response (EC50) was found to be 0.0534 nM and the “Relative Activity %” value is 1137.1%.
The matching figures for `CCOc1ccc(C[C@@H](NC(=O)[C@H](N)Cc2ccccc2)C(=O)N[C@H](CC(C)C)C(=O)N[C@H](CCCCN)C(=O)N2CCC(N)(C(=O)N[C@@H](CCCCN)C(=O)N[C@@H](CCCCN)C(=O)N[C@@H](CCCCN)C(=O)N[C@@H](CCCCN)C(=O)N[C@@H](CCCCN)C(=O)N[C@@H](CCCCN)C(=O)O)CC2)cc1` [Compound 14, D-Phe-D-Tyr(Et)-D-Leu-D-Lys-4-aminopiperidine-4-carboxamide-Lys-Lys-Lys-Lys-Lys-Lys-OH] (H-[Api]([dK-dL-X12])KKKKKK-OH; N-terminus assumed): 0.0655 nM and 927.0%.
For `CCOc1ccc(C[C@@H](NC(=O)[C@H](N)Cc2ccccc2)C(=O)N[C@H](CC(C)C)C(=O)N[C@H](CCCCN)C(=O)N2CCC(N)(C(=O)N[C@H](CCCCN)C(=O)O)CC2)cc1` [Compound 16, D-Phe-D-Tyr(Et)-D-Leu-D-Lys-4-aminopiperidine-4-carboxamide-D-Lys-OH] (H-[dF][dY](Et)[dL][dK]-X10; N-terminus assumed), the EC50 is 0.0431 nM and the “Relative Activity %” value is listed as 1408.8%.
The matching figures for `CCOc1ccc(C[C@@H](NC(=O)[C@H](N)Cc2ccccc2)C(=O)N[C@H](CC(C)C)C(=O)N[C@H](CCCCN)C(=O)N2CCC(N)(C(=O)N[C@H](CCCCN)C(=O)N[C@H](CCCCN)C(=O)O)CC2)cc1` [Compound 18, D-Phe-D-Tyr(Et)-D-Leu-D-Lys-4-aminopiperidine-4-carboxamide-D-Lys-D-Lys-OH] (H-[dF][dY](Et)[dL][dK]-X3; N-terminus assumed): 0.046 nM and 1320.0%.
On to `CCOc1ccc(C[C@@H](NC(=O)[C@H](N)Cc2ccccc2)C(=O)N[C@H](CC(C)C)C(=O)N[C@H](CCCCN)C(=O)N2CCC(N)(C(=O)N[C@H](CCCCN)C(=O)N[C@H](CCCCN)C(=O)N[C@H](CCCCN)C(N)=O)CC2)cc1` [Compound 19, D-Phe-D-Tyr(Et)-D-Leu-D-Lys-4-aminopiperidine-4-carboxamide-D-Lys-D-Lys-D-Lys-NH2] (I: H-[Api][dK][dK][dK]-NH2 / II: H-[dF][dY](Et)[dL][dK]; amide I:1-II:C; N-terminus assumed), for which a half-maximal response (EC50) required 0.0479 nM and the “Relative Activity %” value is 1267.6%.
The matching figures for `CCOc1ccc(C[C@@H](NC(=O)[C@H](N)Cc2ccccc2)C(=O)N[C@H](CC(C)C)C(=O)N[C@H](CCCCN)C(=O)N2CCC(N)(C(=O)N[C@H](CCCCN)C(=O)N[C@H](CCCCN)C(=O)N[C@H](CCCCN)C(=O)N[C@H](CCCCN)C(N)=O)CC2)cc1` [Compound 21, D-Phe-D-Tyr(Et)-D-Leu-D-Lys-4-aminopiperidine-4-carboxamide-D-Lys-D-Lys-D-Lys-D-Lys -NH2] (H-[Api]([dK-dL-X12])[dK][dK][dK][dK]-NH2; N-terminus assumed): 0.0501 nM and 1212.0%.
For `CCOc1ccc(C[C@@H](NC(=O)[C@H](N)Cc2ccccc2)C(=O)N[C@H](CC(C)C)C(=O)N[C@H](CCCCN)C(=O)N2CCC(N)(C(=O)N[C@H](CCCCN)C(=O)N[C@H](CCCCN)C(=O)N[C@H](CCCCN)C(=O)N[C@H](CCCCN)C(=O)N[C@H](CCCCN)C(N)=O)CC2)cc1` [Compound 23, D-Phe-D-Tyr(Et)-D-Leu-D-Lys-4-aminopiperidine-4-carboxamide-D-Lys-D-Lys-D-Lys-D-Lys -D-Lys-NH2] (H-[Api]([dK-dL-X12])[dK][dK][dK][dK][dK]-NH2; N-terminus assumed), the concentration giving a half-maximal response (EC50) was 0.0554 nM and the “Relative Activity %” value came out at 1096.0%.
